From ChEMBL document CHEMBL1201862, “PubChem BioAssay data set” (2004)
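48-hour exposure; five concentrations; linearly interpolated endpoints. Here, GI50 denotes the concentration required for 50% inhibition of growth.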 Activity calls are given as the source filed them. No stated cut-off is given here; in the data, active = GI50 up to about 1.1 µM and inactive = higher.

Columns and labels:
Test in all cases: DTP human tumour cell line panel, 48 h
HOP-62 = system: HOP-62
DU-145 = system: DU-145
A498 = system: A498
IGROV-1 = system: IGROV-1
MDA-N = system: MDA-N
TK-10 = system: TK-10
UACC-257 = system: UACC-257
NCI-H460 = system: NCI-H460
MDA-MB-231 = system: MDA-MB-231
HCC 2998 = system: HCC 2998
HOP-92 = system: HOP-92
NCI/ADR-RES = system: NCI/ADR-RES
MOLT-4 = system: MOLT-4
RXF 393 = system: RXF 393
NCI-H522 = system: NCI-H522
SK-MEL-28 = system: SK-MEL-28
Malme-3M = system: Malme-3M
U-251 = system: U-251
CCRF-CEM = system: CCRF-CEM
SR = system: SR

SMILES	GI50 (HOP-62)	GI50 (DU-145)	GI50 (A498)	GI50 (IGROV-1)	GI50 (MDA-N)	GI50 (TK-10)	GI50 (UACC-257)	GI50 (NCI-H460)	GI50 (MDA-MB-231)	GI50 (HCC 2998)	GI50 (HOP-92)	GI50 (NCI/ADR-RES)	GI50 (MOLT-4)	GI50 (RXF 393)	GI50 (NCI-H522)	GI50 (SK-MEL-28)	GI50 (Malme-3M)	GI50 (U-251)	GI50 (CCRF-CEM)	GI50 (SR)
COc1ccc2ccccc2c1C1NC(=O)c2ccccc2N1 (stereo not drawn)	3.51 µM (inactive)	1.53 µM (inactive)	1.3 µM (inactive)	1.72 µM (inactive)	0.173 µM (active)	5.15 µM (inactive)	20.8 µM (inactive)	1.26 µM (inactive)	3.63 µM (inactive)	1.95 µM (inactive)	14.8 µM (inactive)	0.507 µM (active)	0.826 µM (active)	1.37 µM (inactive)	1.54 µM (inactive)	0.802 µM (active)	0.634 µM (active)	2.28 µM (inactive)	0.711 µM (active)	
Fc1ccc(Nc2nnc(-c3ccccn3)s2)cc1	> 100 µM (inactive)	> 100 µM (inactive)	> 100 µM (inactive)	> 100 µM (inactive)	> 100 µM (inactive)	> 100 µM (inactive)	> 100 µM (inactive)	> 100 µM (inactive)	> 100 µM (inactive)		> 100 µM (inactive)	> 100 µM (inactive)	> 100 µM (inactive)	> 100 µM (inactive)	> 100 µM (inactive)	> 100 µM (inactive)	> 100 µM (inactive)	> 100 µM (inactive)	> 100 µM (inactive)	
CC1(CCC2C=CCC2)CCCNC1=S (stereo not drawn)	> 10 µM (inactive)	> 10 µM (inactive)	> 10 µM (inactive)	> 10 µM (inactive)	> 10 µM (inactive)	> 10 µM (inactive)	> 10 µM (inactive)	> 10 µM (inactive)	> 10 µM (inactive)	> 10 µM (inactive)	> 10 µM (inactive)		> 10 µM (inactive)	> 10 µM (inactive)		> 10 µM (inactive)	> 10 µM (inactive)	> 10 µM (inactive)	> 10 µM (inactive)	> 10 µM (inactive)
CCOC(=O)c1c(-c2ccc(OC)cc2)c(C#N)c(=S)n(C2OC(CO)C(O)C(O)C2O)c1-c1ccccc1 (stereo not drawn)	25.4 µM (inactive)	48.4 µM (inactive)		59.6 µM (inactive)	33.2 µM (inactive)	55.6 µM (inactive)	> 100 µM (inactive)	42.7 µM (inactive)	36 µM (inactive)	39.6 µM (inactive)	6.85 µM (inactive)	> 100 µM (inactive)	30.7 µM (inactive)	26.2 µM (inactive)		50.4 µM (inactive)	73.5 µM (inactive)	47.1 µM (inactive)	31.2 µM (inactive)	54.7 µM (inactive)
O=C(NCCN(CCNC(=O)c1cccc(O)c1O)CCNC(=O)c1cccc(O)c1O)c1cccc(O)c1O [TRENCAM]	6.59 µM (inactive)	6.98 µM (inactive)	51.9 µM (inactive)	4.73 µM (inactive)	9.31 µM (inactive)	> 56.1 µM (inactive)	19.5 µM (inactive)	4.38 µM (inactive)	6.07 µM (inactive)	3.4 µM (inactive)	7.53 µM (inactive)	49.4 µM (inactive)		7.87 µM (inactive)	0.826 µM (active)	3.82 µM (inactive)	2.51 µM (inactive)	6.49 µM (inactive)		
NC(CCC(=O)O)C(=O)NC(Cc1ccc(N(CCCl)CCCl)cc1)C(=O)O (stereo not drawn)	> 100 µM (inactive)	> 100 µM (inactive)	> 100 µM (inactive)	> 100 µM (inactive)	> 100 µM (inactive)	> 100 µM (inactive)	> 100 µM (inactive)	> 100 µM (inactive)	> 100 µM (inactive)	> 100 µM (inactive)	> 100 µM (inactive)	> 100 µM (inactive)	> 100 µM (inactive)	> 100 µM (inactive)	> 100 µM (inactive)	> 100 µM (inactive)	> 100 µM (inactive)	> 100 µM (inactive)	> 100 µM (inactive)	
COC(=O)[C@@H](OC(C)=O)[C@@H](OC(C)=O)c1nnc2ccc(Cl)nn12	> 100 µM (inactive)	> 100 µM (inactive)	> 100 µM (inactive)	85.3 µM (inactive)	> 100 µM (inactive)	> 100 µM (inactive)	87.9 µM (inactive)	> 100 µM (inactive)	> 100 µM (inactive)	36.2 µM (inactive)		> 100 µM (inactive)	> 100 µM (inactive)	> 100 µM (inactive)	22.2 µM (inactive)	97.7 µM (inactive)	> 100 µM (inactive)	> 100 µM (inactive)	> 100 µM (inactive)	
COc1cccc(C=C2N=C(C)N(n3c(-c4ccccc4)nc4ccccc4c3=O)C2=O)c1	> 100 µM (inactive)	> 100 µM (inactive)	> 100 µM (inactive)	> 100 µM (inactive)	> 100 µM (inactive)	> 100 µM (inactive)	> 100 µM (inactive)	> 100 µM (inactive)	> 100 µM (inactive)	> 100 µM (inactive)			94.4 µM (inactive)		> 100 µM (inactive)	> 100 µM (inactive)			57.5 µM (inactive)	64.9 µM (inactive)
CNC(=O)c1nnn(Cc2ccccc2)c1S	> 100 µM (inactive)	> 100 µM (inactive)		> 100 µM (inactive)	> 100 µM (inactive)	> 100 µM (inactive)	> 100 µM (inactive)	> 100 µM (inactive)	> 100 µM (inactive)	> 100 µM (inactive)		> 100 µM (inactive)	> 100 µM (inactive)	> 100 µM (inactive)		> 100 µM (inactive)		> 100 µM (inactive)	> 100 µM (inactive)	
CCc1nnc(CC)n1-n1c(Cc2ccccc2)n[nH]c1=O	> 100 µM (inactive)	> 100 µM (inactive)		> 100 µM (inactive)	> 100 µM (inactive)	> 100 µM (inactive)	> 100 µM (inactive)		> 100 µM (inactive)	> 100 µM (inactive)	> 100 µM (inactive)	> 100 µM (inactive)	> 100 µM (inactive)	> 100 µM (inactive)	> 100 µM (inactive)	> 100 µM (inactive)		> 100 µM (inactive)	> 100 µM (inactive)	> 100 µM (inactive)
CC(C)OCC1CC(CC(=O)Nc2nncs2)C(=O)O1 (stereo not drawn)	> 100 µM (inactive)	> 100 µM (inactive)		> 100 µM (inactive)	> 100 µM (inactive)	> 100 µM (inactive)	> 100 µM (inactive)	> 100 µM (inactive)	> 100 µM (inactive)	> 100 µM (inactive)	> 100 µM (inactive)	> 100 µM (inactive)	> 100 µM (inactive)			> 100 µM (inactive)		> 100 µM (inactive)	> 100 µM (inactive)	> 100 µM (inactive)
COC(=O)c1ccccc1CC1Cc2cccc(C)c2C1=O (stereo not drawn)	> 100 µM (inactive)	96.4 µM (inactive)		46.5 µM (inactive)	36.1 µM (inactive)	21.3 µM (inactive)	34 µM (inactive)	47.5 µM (inactive)	51.5 µM (inactive)	40.3 µM (inactive)	23.8 µM (inactive)	32.7 µM (inactive)	19.9 µM (inactive)	24.7 µM (inactive)	24.8 µM (inactive)	32.5 µM (inactive)	19.2 µM (inactive)	33 µM (inactive)	36.8 µM (inactive)	
CCOP(=O)(OCC)C(C)(CC)N/C(=N\C1=NC(C(F)(F)F)(C(F)(F)F)N=C(C(F)(F)F)O1)NC(NC(C)=O)(C(F)(F)F)C(F)(F)F (stereo not drawn)	36.1 µM (inactive)	81.5 µM (inactive)	38.9 µM (inactive)	51.2 µM (inactive)	52.5 µM (inactive)	46.9 µM (inactive)	31.8 µM (inactive)	35.3 µM (inactive)	22.9 µM (inactive)	34 µM (inactive)	9.95 µM (inactive)	17.9 µM (inactive)	13.2 µM (inactive)	32.6 µM (inactive)	27 µM (inactive)	> 100 µM (inactive)	22.1 µM (inactive)	31 µM (inactive)	15.8 µM (inactive)	
O=C1Oc2cc(O)cc(/C=C/c3ccc(O)cc3)c2[C@@]12c1c(O)cc(O)cc1OC2c1cccc(O)c1 (stereo partly drawn)	20.3 µM (inactive)	39 µM (inactive)		0.61 µM (active)	26.1 µM (inactive)	39.1 µM (inactive)	15.2 µM (inactive)	20.9 µM (inactive)	26.4 µM (inactive)	19.5 µM (inactive)	31.2 µM (inactive)	67.1 µM (inactive)	42.8 µM (inactive)	34.6 µM (inactive)		37.3 µM (inactive)	33.4 µM (inactive)	32.9 µM (inactive)	22 µM (inactive)	42.4 µM (inactive)
CC(C)=CCc1cc2c(cc1O)OC[C@H]1c3cc4c(cc3O[C@@H]21)OCO4	91.6 µM (inactive)	38.8 µM (inactive)		> 100 µM (inactive)	20.6 µM (inactive)	39.8 µM (inactive)	45.3 µM (inactive)	21.2 µM (inactive)	40.3 µM (inactive)	> 10 µM (inactive)	23 µM (inactive)	29.8 µM (inactive)	22.1 µM (inactive)	21.4 µM (inactive)	32.6 µM (inactive)	83.4 µM (inactive)		37.5 µM (inactive)	26.4 µM (inactive)	33.6 µM (inactive)
